SMILES strings stand for the structures. Like-named read-outs stand apart in the source and are kept apart here.

In data set [1] the test system is [Ca2+]i in A7R5 cells. The data set is described as follows: Ca2+ channel agonist activity in A7R5 aorta smooth muscle cells. Format: cell-based, rat. The note with it: 20 to 100 μM. As to the method:
(§1) The intracellular free Ca^2+ concentration [Ca^2+]i was measured in confluent monolayers of SH-SY5Y or A7R5 cells with the Ca^2+-sensitive fluorescent indicator Fluo-4 NW according to the instruction (Fluo-4 NW Calcium Assay Kit, Thermo Fisher Scientific, cat. No. F36206) (as referenced by Vilskersts et al..
(§2) For the investigation of Ca^2+ channel agonist activity of the DHP compound, 4 […] NW loaded SH-SY5Y or A7R5 cells were stimulated by the addition of compound 4 at the concentration range from 4 to 100 μM. The well-known calcium channel agonist Bay K8644 was used as the positive control (at the concentration range from 4 to 100 μM).
(§3) Changes in [Ca^2+]i were measured from the fluorescence emitted at 516 nm due to alternate excitation at 494 nm using the microplate reader Tecan Infinite M1000 (Austria). Intracellular Ca^2+ concentration was calculated from a standard curve with known amounts of free Ca^2+ using the standard Ca^2+-EGTA buffering system (Calcium Calibration Buffer Kit, cat. No.C-3008, Thermo Fisher Scientific).

The subject of data set [2] is [Ca2+]i in SH-SY5Y cells. The data set is described as follows: Ca2+ channel agonist activity, [Ca2+]i in Fluo-4 NW-loaded cells. The following applies: for Agonist activity (RFU, 100 μM): compound at 100 μM. Format: cell-based, human. As to the method:
as §1, §2, §3
In some experiments, […] NW loaded cells were washed and placed in normal Ca^2+-free HEPES-buffered replacement medium. In Ca^2+ restoration experiments, Ca^2+ was initially absent from the medium and was restored to 1 mM after 870 s of stimulation with compound 4.

Data set [3] deals with carbachol-dependent mobilization of intracellular Ca2+ in SH-SY5Y cells. The data set is described as follows: Antagonist effect on carbachol-evoked intracellular Ca2+ mobilization (Fluo-4 NW). The following applies: Homo sapiens. Format: cell-based, human. Here is the method: as §1
The investigation of Ca^2+ channel blocking activity of DHP derivatives was based on the effect of DHP on carbachol evoked intracellular Ca^2+ mobilization in human neuroblastoma cells.
The cells were preincubated in the dark for 15 minutes with the tested compounds at concentrations ranging from 0.16 to 100 μM. The application of carbachol (100 nM) to […] NW loaded SH-SY5Y cells stimulated a classic “biphasic” response. The well-known 3rd generation calcium channel inhibitor amlodipine, which is also claimed to act as antioxidant and free radical scavenger, was used as the positive control (at the concentration range from 20 to 100 μM).
as §3
The IC50 values for the tested compounds were calculated using GraphPad Prism 4.0 software.

Data set [4] has as its system isolated rat aortic ring. The data set is described as follows: Isolated rat aortic ring model, KCl precontracted denuded rings. The note with it: for EC50: KCl precontracted denuded rat aortic rings, read-out: Calcium channel blocking activity EC50. Here is the method:
The experimental animal (one rat) was anesthetized with pentobarbital sodium (60 mg/kg i.p.). Once deep anesthesia was achieved, the thoracic aorta was dissected, placed in ice cold Krebs-Henseleit (K-H) buffer (content in mM: NaCl 118, KCl 4.7, CaCl2 2.5, MgCl2 1.64, NaHCO3 24.88, KH2PO4 1.18, glucose 10.0, sodium pyruvate 5.0, and disodium salt of ethylenediaminetetraacetic acid 0.05), cleaned from connective and fatty tissues, and cut into 3-4 mm long rings. Endothelium was mechanically scraped off with the tips of forceps, and the aortic rings were mounted between two stainless steel hooks attached to an isometric force transducer in 20 ml organ bath in K-H buffer bubbled with 95% O2 and 5% CO2 at 37°C (one separate aortic ring was used for each tested compound). Passive tension was adjusted to approximately 40 mN over a 60 min equilibration period. The experiment was started after the equilibration period by adding KCl solution to obtain a concentration of 50 mM. Addition of KCl induced contraction of the aortic rings, and a plateau of contraction was reached about […]. Thereafter, the tested compound solutions in dimethyl sulfoxide were added to the aortic rings in order to obtain the final concentrations in the range of 10^−10-10^−5 M. Changes in the tension were recorded using LabChart Pro software from ADInstruments (https://www.adinstruments.com/products/labchart/labchart-for-research). The EC50 values of the tested compounds were calculated using Prism 3.0 software from GraphPad (GraphPad Software Inc., USA) (https://www.graphpad.com/scientific-software/prism/). The experimental procedures involving experimental animals were carried out in accordance with the guidelines of the European Community, LR local laws and policies, and were approved by the Latvian Animal Protection Ethical Committee, the Food and Veterinary Service, Riga, Latvia.

Data set [5] in a line: Electrochemical oxidation potentials by cyclic voltammetry. Format: physicochemical. The note with it: glassy carbon electrode, vs Ag/Ag+, acetonitrile, 0.1 M TBABF4. Here is the method:
The cyclic voltammetry experiments were carried out on the PARSTAT 2273 electrochemical system. A stationary glassy carbon disk electrode (d = 0.8 mm) served as the working electrode, while the counter electrode was a Pt wire. The oxidation potentials were measured relative to Ag/Ag^+ reference electrode. Acetonitrile was dried over P2O5 and distilled; the distillate was stored over CaH2 and redistilled just before use. Recrystallized tetrabutylammonium tetrafluoroborate (TBABF4) was used as a supporting electrolyte at 0.1 M concentration.

In data set [6] the test system is carbachol-dependent mobilization of intracellular Ca2+ in SH-SY5Y cells. The arrangement: method as in earlier work. The following applies: SH-SY5Y cells stimulated by 100 nM carbachol; read-out: Antagonist effect IC50; cited from earlier work.
Data set [7] has as its system Ca2+ ion channel activity evoked by compound 4 in SH-SY5Y cells. The data set is described as follows: Inhibitor analysis of Ca2+ ion channel activity evoked by compound 4. Format: cell-based, human. Here is the method:
The intracellular free Ca^2+ concentration [Ca^2+]i was measured in confluent monolayers of SH-SY5Y or […] cells with the Ca^2+-sensitive fluorescent indicator Fluo-4 NW according to the instruction (Fluo-4 NW Calcium Assay Kit, Thermo Fisher Scientific, cat. No. F36206) (as referenced by […] al.. Changes in [Ca^2+]i were measured from the fluorescence emitted at 516 nm due to alternate excitation at 494 nm using the microplate reader Tecan Infinite M1000 (Austria). Intracellular Ca^2+ concentration was calculated from a standard curve with known amounts of free Ca^2+ using the standard Ca^2+-EGTA buffering system (Calcium Calibration Buffer Kit, cat. No.C-3008, Thermo Fisher Scientific). […] The commercial calcium agonist compound Bay […] was used as the reference compound.

Where [8] appears, read: SH-SY5Y cells, 100 nM carbachol, 15 min preincubation, read-out: Antagonist activity (IC50).

With `CCOC(=O)COC(=O)C1=C(C)NC(C)=C(C(=O)OCC(=O)OCC)C1c1ccc[n+](C(C)C(=O)c2ccc(OCc3ccccc3)cc2)c1` (stereo not shown) [Compound 4], the “Ca2+ ion channel agonist activity” value in data set [1] was “dose-dependent agonist activity”. For the same molecule, in data set [2] (100 μM compound, compared to presence of extracellular Ca2+), the “Decrease of intracellular [Ca2+]i signal in the absence of extracellular Ca2+” value is reported as 50%. Moreover, the “Agonist activity (RFU, 100 μM)” value in data set [2] was found to be 14425 ± 1072 RFU. Further, the inhibition at 8 µM in data set [3] (SH-SY5Y, compound at 0,8 μM, read-out: Inhibition (%) of Ca2+ channels activated with carbachol) is 4 ± 10%. For the same molecule, in data set [3] (SH-SY5Y, compound at 0,16 μM, read-out: Inhibition (%) of Ca2+ channels activated with carbachol), the inhibition at 16 µM is -16 ± 10%. Further, the inhibition at 4 µM in data set [3] (SH-SY5Y, compound at 4 μM, read-out: Inhibition (%) of Ca2+ channels activated with carbachol) was found to be 11 ± 12%. In addition, the inhibition at 20 µM in data set [3] (SH-SY5Y, compound at 20 μM, read-out: Inhibition (%) of Ca2+ channels activated with carbachol) was 71 ± 9%. Moreover, the 50% inhibitory concentration (IC50) was found to be 12 ± 2 µM in data set [3] (setting [8]) and 12 ± 2 µM in data set [3] (Table 5, SH-SY5Y cells, read-out: IC50, antagonist effect on Ca2+ channels activated with carbachol). For the same molecule, in data set [4], the 50% effective concentration (EC50) came out at 0.691 ± 0.167 µM. Besides, the “Calcium channel blocking activity relative to amlodipine (times weaker)” value in data set [4] (isolated rat aortic ring model) was “about 50 times”. The “Agonist effect (contractions of aorta rings)” value in data set [4] (isolated rat aortic rings) is “no agonist effect”. The molecule also displayed an Electrooxidation potential in data set [5] of 1.68 V.

In the case of `CCOC(=O)C1=C(COCCN)NC(C)=C(C(=O)OC)C1c1ccccc1Cl` (stereo not shown) [Amlodipine], the IC50 in data set [6] is 13 µM; in data set [7] (Homo sapiens, 100 μM compound 4, SH-SY5Y cells, read-out: IC50 for inhibition of Ca2+ ion channel activity evoked by compound 4), 100 µM; in data set [3] (setting [8]), 11 ± 2 µM. The inhibition at 100 µM in data set [7] (Homo sapiens, SH-SY5Y, inhibitor 100 μM, 15 min preincubation, 100 μM compound 4) was found to be 50 ± 11%. The “Inhibition (%) of Ca2+ ion channel activity evoked by compound 4” value in data set [7] (inhibitor 4 μM, 100 μM compound 4) was determined as 0 ± 6%; in data set [7] (inhibitor 20 μM, 100 μM compound 4) it was 10 ± 11%. In addition, the “Phase of the compound 4 response that is inhibited” value in data set [7] (inhibitor 100 μM, 100 μM compound 4) is recorded as “inhibited the first phase of the response”. The “Agonist activity (RFU, 100 μM)” value in data set [2] is reported as “No effect”. The 50% effective concentration (EC50) in data set [4] was 0.0143 ± 0.0003 µM.

Source of the values: article PMC7139875, “4-Pyridinio-1,4-Dihydropyridines as Calcium Ion Transport Modulators: Antagonist, Agonist, and Dual Action” (Oxidative Medicine and Cellular Longevity, 2020).
